Biological target: α-glucosidase (Saccharomyces cerevisiae, UniProt P53341)
Assay: α-Glucosidase inhibitory assay
Type: biochemical
Details: for IC50: 4-nitrophenyl-α-D-glucopyranoside substrate, 37°C, 30 min, absorbance 405 nm, read-out: IC50 (μM), α-glucosidase inhibitory activities; for inhibitory activities against α-glucosidase (in words): conclusion statement
Description: IC50 values were calculated from the graph of inhibition percentage against the logarithm of the concentrations of compounds.

α-glucosidase, sequence (P53341 whole entry): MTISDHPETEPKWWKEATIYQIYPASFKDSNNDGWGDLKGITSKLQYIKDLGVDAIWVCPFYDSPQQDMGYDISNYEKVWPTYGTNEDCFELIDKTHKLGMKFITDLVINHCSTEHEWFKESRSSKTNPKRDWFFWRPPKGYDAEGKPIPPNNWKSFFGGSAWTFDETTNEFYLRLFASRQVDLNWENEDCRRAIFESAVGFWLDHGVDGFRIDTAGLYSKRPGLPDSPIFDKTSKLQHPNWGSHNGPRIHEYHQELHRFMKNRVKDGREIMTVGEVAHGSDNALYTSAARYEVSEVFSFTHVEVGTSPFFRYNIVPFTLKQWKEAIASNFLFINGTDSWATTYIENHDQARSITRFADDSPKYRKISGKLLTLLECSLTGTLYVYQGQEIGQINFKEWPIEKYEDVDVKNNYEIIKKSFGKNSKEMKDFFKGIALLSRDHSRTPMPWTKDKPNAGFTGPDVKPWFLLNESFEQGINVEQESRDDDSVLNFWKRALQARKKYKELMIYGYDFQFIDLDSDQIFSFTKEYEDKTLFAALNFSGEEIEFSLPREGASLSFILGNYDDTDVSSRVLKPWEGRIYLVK

Compound	IC50	inhibitory activities against α-glucosidase (in words)
COc1cc(O[C@@H]2O[C@H](CO[C@@H]3O[C@@H](C)[C@H](O)[C@@H](O)[C@H]3O)[C@@H](O)[C@H](O)[C@H]2O)c2c(O)c3c(=O)cc(C)oc3cc2c1 [Compound 12, rubrofusarin-6-O-α-L-rhamnosyl-(1→6)-O-β-D-glucopyranside]	> 50 µM	–
vittarin-B [Compound 9]	22.5 µM	moderate inhibitory activities
COc1cc(O[C@@H]2O[C@H](CO)[C@@H](O)[C@H](O)[C@H]2O)c2c(O)c3c(=O)cc(C)oc3cc2c1 [Compound 11, rubrofusarin-6-O-β-D-glucopyranoside]	28 µM	moderate inhibitory activities
demethylflavasperone-10-O-β-D-glucopyranoside [Compound 10]	> 50 µM	–
O=c1c(O)c(-c2ccc(O)c(O)c2)oc2cc(O)cc(O)c12 [Compound 14, quercetin]	–	moderate inhibitory activities

Further lines, results first:

IC50	inhibitory activities against α-glucosidase (in words)	Compound
–	moderate inhibitory activities	O=C1c2c(O)cc(O)cc2O[C@H](c2ccc(O)cc2)[C@H]1O [Compound 17, dihydrokaempferol]
–	moderate inhibitory activities	O=c1c(O)c(-c2ccc(O)cc2)oc2cc(O)cc(O)c12 [Compound 15, kaempferol]
> 50 µM	–	COc1c(O)c(O)cc2c1C(=O)c1c(O)cc(C)cc1C2=O [Compound 18, 2-hydroxyemodin 1-methyl ether]
